How the values were obtained:
[1] = tested on: femoral artery blood flow; assay: Blood flow-increasing action (average femoral artery blood flow after intraarterial injection, relative to papaverine); format: in vivo, mongrel dogs; settings: anesthetized dogs, dose 0.03, 0.003 or 0.0003 mg/kg, papaverine 0.03 mg/kg = 1.00
Procedure: The blood flow at a femoral artery is measured by each of four male and female mongrel dogs weighing from 10 to 14 kg. That is, each subject is anesthetized by injecting intravenously 30 mg/kg of pentobarbital and one side femoral artery is exposed. A probe (2.5 mm diameter) of a magnetic blood flow meter (Model MF-26, a product of Nihon-Koden K.K.) is fitted to this artery and a catheter is inserted into and fixed to a side branch of this femoral artery. Intraarterial injection of 0.1 ml of the sample is then made and the average blood flow is measured. The dose of the sample is 0.03 mg/kg. When the blood flow-increasing action is strong, the dose is made 0.003 mg/kg and when the blood flow-increasing action is even stronger, it is made 0.0003 mg/kg in order to conduct the experiments. […] The numerical values in Table 1 represent the relative values of the compounds of this invention when the height of the blood flow-increase curve obtained by administration of 0.03 mg/kg papaverine is arbitrarily assigned the value 1.00. In other words, these values represent the ratio of the efficacy of the compounds of this invention relative to the activity of papaverine, with the latter being assigned the value 1.

[2] = tested on: grooming behavior in mice; assay: Inhibition of grooming behavior in mice; format: in vivo; settings: for Number of grooming responses: 20-minutes count, 10 mice
Procedure: The grooming behavior-inhibiting action of the compounds of the present invention was examined by the following experiments, using the method disclosed in O. Rohte; Psychopharmacologia, Vol. 14, 18-22 (1969).
In this experiment, each sample (the compounds of the present invention, and chlorpromazine and diazepam as control medicines) was prepared in a form of 5% arabic gum suspension of 0.1 ml/10 g body weight of the animal.
Forty minutes after oral administration of each sample, the oily ink was painted on each mouse. And 10 minutes later, the number of grooming responses was counted for a 20-minutes period. A 5% arabic gum solution alone was administered to the control group.

[3] = tested on: fighting behavior in mice; assay: Inhibition of the fighting behavior in mice; format: in vivo; settings: for No. of fighting episodes: one hour after administration, 10 experiments
Source text: The anti-fighting action was examined in the following experiment, using the method disclosed in Ralph E. Tedeshi et al, Journal of Pharmacology and Experimental Therapeutics, Vol. 125, 28-34 (1959).
A pair of mice was placed in a plastic cage (16×10×18 cm) with the grid floor and applied electrical shocks (3 mA, 5 Hz, 50 msec.) during a 3-minutes period to their feet to induce the fighting behavior between the mice.
In this experiment, each sample (the compounds of the present invention, and chlorpromazine and diazepam as control medicines) was prepared in a form of a 5% arabic gum suspension and was orally administered to the mice. One hour after oral administration, the fighting behavior was observed. A 5% arabic gum solution was administered to the control group. Ten pairs of mice were used for each dose level.

[4] = tested on: phenylquinone-induced writhing in mice; assay: Analgesic action: anti-writhing activity in mice (phenylquinone); format: in vivo; settings: 4 mice
Procedure: The analgesic action of the compounds of the present invention was examined by the following experiment, using the writhing method disclosed in E. Siegmund et al; Proc. Soc. Exp. Biol. & Med., Vol. 95, 729 (1957).
Thirty minutes after subcutaneous injection of the compounds of the present invention, 2 mg/kg of phenylquinone was injected intraperitoneally to the mice. And 5 minutes later, the total number of writhes was counted for 4 minutes. Four mice were used for each dose level.

COc1ccc(Cc2nccc3cc(OC)c(OC)cc23)cc1OC [Papaverine, reference compound]
Specific activity (blood flow increase relative to papaverine = 1) [1]: 1

Cn1cnc2c1c(=O)n(CCCCCN1CCN(c3ccccc3)CC1)c(=O)n2C
Specific activity (blood flow increase relative to papaverine = 1) [1]: 247

Cn1cnc2c1c(=O)n(CCCCN1CCN(c3cccc(C(F)(F)F)c3)CC1)c(=O)n2C [drawing 17]
% Inhibition (grooming responses) ([2]; 0.625 mg/kg P.O.): 49%
Number of grooming responses ([2]; 0.625 mg/kg P.O.): 15.5 ± 5.8
% Inhibition (grooming responses) ([2]; 2.5 mg/kg P.O.): 46%
Number of grooming responses ([2]; 2.5 mg/kg P.O.): 16.5 ± 5.9
% Inhibition (grooming responses) ([2]; 10 mg/kg P.O.): 95%
Number of grooming responses ([2]; 10 mg/kg P.O.): 1.6 ± 1.6
% Inhibition (grooming responses) ([2]; 40 mg/kg P.O.): 100%
Number of grooming responses ([2]; 40 mg/kg P.O.): 0

COc1ccccc1N1CCN(CCCCn2c(=O)c3c(ncn3C)n(C)c2=O)CC1 [drawing 18]
% Inhibition (grooming responses) ([2]; 0.625 mg/kg P.O.): 23%
Number of grooming responses ([2]; 0.625 mg/kg P.O.): 23.4 ± 6.1
% Inhibition (grooming responses) ([2]; 2.5 mg/kg P.O.): 49%
Number of grooming responses ([2]; 2.5 mg/kg P.O.): 15.6 ± 4.5
% Inhibition (grooming responses) ([2]; 10 mg/kg P.O.): 68%
Number of grooming responses ([2]; 10 mg/kg P.O.): 9.5 ± 4.1
% Inhibition (grooming responses) ([2]; 40 mg/kg P.O.): 100%
Number of grooming responses ([2]; 40 mg/kg P.O.): 0

Cn1cnc2c1c(=O)n(CCCCN1CCN(c3cccc(C(F)(F)F)c3)CC1)c(=O)n2C [drawing 19]
% Inhibition (fighting episodes) ([3]; 0.625 mg/kg P.O.): 25%
No. of fighting episodes ([3]; 0.625 mg/kg P.O.): 4.2 ± 0.7
% Inhibition (fighting episodes) ([3]; 2.5 mg/kg P.O.): 81%
No. of fighting episodes ([3]; 2.5 mg/kg P.O.): 1.0

Cn1cnc2c1c(=O)n(CCCCCN1CCN(c3ccccc3Cl)CC1)c(=O)n2C
% Inhibition (writhing) ([4]; 1.0 mg/kg s.c.): 0%
% Inhibition (writhing) ([4]; 2.5 mg/kg s.c.): 56%
% Inhibition (writhing) ([4]; 5.0 mg/kg s.c.): 87%
% Inhibition (writhing) ([4]; 10.0 mg/kg s.c.): 100%

CN(C)CCCN1c2ccccc2Sc2ccc(Cl)cc21 [chlorpromazine, reference compound]
% Inhibition (grooming responses) ([2]; 0.625 mg/kg P.O.): 30%
Number of grooming responses ([2]; 0.625 mg/kg P.O.): 21.4 ± 4.3
% Inhibition (grooming responses) ([2]; 2.5 mg/kg P.O.): 91%
Number of grooming responses ([2]; 2.5 mg/kg P.O.): 2.9 ± 2.9
% Inhibition (grooming responses) ([2]; 10 mg/kg P.O.): 61%
Number of grooming responses ([2]; 10 mg/kg P.O.): 5.8 ± 5.8
% Inhibition (grooming responses) ([2]; 40 mg/kg P.O.): 80%
Number of grooming responses ([2]; 40 mg/kg P.O.): 5.9 ± 5.9
% Inhibition (fighting episodes) ([3]; 0.625 mg/kg P.O.): 30%
No. of fighting episodes ([3]; 0.625 mg/kg P.O.): 3.9 ± 0.8
% Inhibition (fighting episodes) ([3]; 2.5 mg/kg P.O.): 45%
No. of fighting episodes ([3]; 2.5 mg/kg P.O.): 3.1 ± 1.0

COc1ccccc1N1CCN(CCCCn2c(=O)c3c(ncn3C)n(C)c2=O)CC1 [drawing 20]
% Inhibition (fighting episodes) ([3]; 0.625 mg/kg P.O.): 41%
No. of fighting episodes ([3]; 0.625 mg/kg P.O.): 3.3 ± 0.7
% Inhibition (fighting episodes) ([3]; 2.5 mg/kg P.O.): 71%
No. of fighting episodes ([3]; 2.5 mg/kg P.O.): 1.6

CN1C(=O)CN=C(c2ccccc2)c2cc(Cl)ccc21 [diazepam, reference compound]
% Inhibition (grooming responses) ([2]; 0.625 mg/kg P.O.): 53%
Number of grooming responses ([2]; 0.625 mg/kg P.O.): 14.3 ± 4.2
% Inhibition (grooming responses) ([2]; 2.5 mg/kg P.O.): 68%
Number of grooming responses ([2]; 2.5 mg/kg P.O.): 9.5 ± 5.2
% Inhibition (grooming responses) ([2]; 10 mg/kg P.O.): 75%
Number of grooming responses ([2]; 10 mg/kg P.O.): 7.6 ± 3.2
% Inhibition (fighting episodes) ([3]; 0.625 mg/kg P.O.): 29%
No. of fighting episodes ([3]; 0.625 mg/kg P.O.): 4.0 ± 1.0
% Inhibition (fighting episodes) ([3]; 1.25 mg/kg P.O.): 63%
No. of fighting episodes ([3]; 1.25 mg/kg P.O.): 2.1 ± 0.9

Cn1cnc2c1c(=O)n(CCCCCCN1CCN(c3ccccc3Cl)CC1)c(=O)n2C
% Inhibition (writhing) ([4]; 0.25 mg/kg s.c.): 10%
% Inhibition (writhing) ([4]; 0.5 mg/kg s.c.): 70%
% Inhibition (writhing) ([4]; 1.0 mg/kg s.c.): 80%
% Inhibition (writhing) ([4]; 2.5 mg/kg s.c.): 90%
% Inhibition (writhing) ([4]; 5.0 mg/kg s.c.): 100%

COc1ccccc1N1CCN(CCCCCCn2c(=O)c3c(ncn3C)n(C)c2=O)CC1
Specific activity (blood flow increase relative to papaverine = 1) [1]: 404

Cc1cccc(C)c1N1CCN(CCCCn2c(=O)c3c(ncn3C)n(C)c2=O)CC1
% Inhibition (writhing) ([4]; 2.5 mg/kg s.c.): 0%
% Inhibition (writhing) ([4]; 5.0 mg/kg s.c.): 53%
% Inhibition (writhing) ([4]; 10.0 mg/kg s.c.): 77%
% Inhibition (writhing) ([4]; 25.0 mg/kg s.c.): 85%

COc1ccccc1N1CCN(CCCn2c(=O)c3c(ncn3C)n(C)c2=O)CC1
Specific activity (blood flow increase relative to papaverine = 1) [1]: 143

COc1ccccc1N1CCN(CCn2c(=O)c3c(ncn3C)n(C)c2=O)CC1
Specific activity (blood flow increase relative to papaverine = 1) [1]: 95

From patent publication US4493837A, “Theobromine derivatives” (Eisai Co., Ltd., priority 1979, dated 1985)
